From paper PMC9730523 (Frontiers in Immunology, 2022)

Experiments:
hMC1 [1] = biological target: T1, hMC1 (Homo sapiens, UniProt Q01726); experiment: ERK1/2 phosphorylation assay, transfected HEK293A; assay type: cell-based; design: host or cells: HEK293A; conditions: 5 min; p-ERK1/2, hMC1; normalised maximal efficacy at 2μM, percentage of maximal αMSH response; read-out: Top
hMC3 [2] = biological target: T2, hMC3 (Homo sapiens, UniProt P41968); experiment: ERK1/2 phosphorylation assay, transfected HEK293A; assay type: cell-based; design: host or cells: HEK293A; conditions: 5 min; p-ERK1/2, hMC3; normalised maximal efficacy at 2μM, percentage of maximal αMSH response; read-out: Top
hMC5 [3] = biological target: T3, hMC5 (Homo sapiens, UniProt P33032); experiment: ERK1/2 phosphorylation assay, transfected HEK293A; assay type: cell-based; design: host or cells: HEK293A; conditions: HEK293-A, 5 min; p-ERK1/2, hMC5; normalised maximal efficacy at 2μM, percentage of maximal αMSH response; read-out: Top
mMC1 [4] = biological target: T4, mMC1 (Mus musculus, UniProt Q01727); experiment: ERK1/2 phosphorylation assay, transfected HEK293A; assay type: cell-based; design: host or cells: HEK293A; conditions: HEK293-A, 5 min; p-ERK1/2, mMC1; normalised maximal efficacy at 2μM, percentage of maximal αMSH response; read-out: Top
hMC3 [5] = biological target: T2, hMC3; experiment: cAMP accumulation assay, transfected HEK293A; design: dose or concentration left out as unconfirmed; conditions: HMC3, 0.25 h, read-out: Top
hMC5 [6] = biological target: T3, hMC5; experiment: cAMP accumulation assay, transfected HEK293A; design: dose or concentration left out as unconfirmed; conditions: HEK293-A, 0.25 h, read-out: Top
mMC4 [7] = biological target: T5, mMC4 (Mus musculus, UniProt P56450); experiment: cAMP accumulation assay, transfected HEK293A; assay type: cell-based; conditions: HEK293-A, 0.25 h, normalised maximal efficacy at 2μM, percentage of maximal αMSH response, read-out: Top
T5 construct: host or cells: HEK293A

hMC4 [8] = biological target: T6, hMC4 (Homo sapiens, UniProt P32245); experiment: cAMP accumulation assay, transfected HEK293A; assay type: cell-based; conditions: HEK293-A, 0.25 h, normalised maximal efficacy at 2μM, percentage of maximal αMSH response, read-out: Top
T6 construct: host or cells: HEK293A

hMC1 [9] = biological target: T1, hMC1; experiment: cAMP accumulation assay, transfected HEK293A; design: dose or concentration left out as unconfirmed; conditions: HMC1, 0.25 h, read-out: Top
mMC5 [10] = biological target: T7, mMC5 (Mus musculus, UniProt P41149); experiment: cAMP accumulation assay, transfected HEK293A; design: dose or concentration left out as unconfirmed; conditions: HEK293-A, 0.25 h, read-out: Top
hMC4 [11] = biological target: T6, hMC4; experiment: ERK1/2 phosphorylation assay, transfected HEK293A; assay type: cell-based; conditions: HEK293-A, 5 min; p-ERK1/2, hMC4; normalised maximal efficacy at 2μM, percentage of maximal αMSH response; read-out: Top
mMC1 [12] = biological target: T4, mMC1; experiment: cAMP accumulation assay, transfected HEK293A; design: dose or concentration left out as unconfirmed; conditions: HEK293-A, 0.25 h, read-out: Top
mMC5 [13] = biological target: T7, mMC5; experiment: ERK1/2 phosphorylation assay, transfected HEK293A; assay type: cell-based; design: host or cells: HEK293A; conditions: HEK293-A, 5 min; p-ERK1/2, mMC5; normalised maximal efficacy at 2μM, percentage of maximal αMSH response; read-out: Top
[14] = humans, single subcutaneous administration; cited from earlier work
mMC4 [15] = biological target: T5, mMC4; experiment: ERK1/2 phosphorylation assay, transfected HEK293A; assay type: cell-based; conditions: HEK293-A, 5 min; p-ERK1/2, mMC4; normalised maximal efficacy at 2μM, percentage of maximal αMSH response; read-out: Top

T2 sequence (P41968 whole entry): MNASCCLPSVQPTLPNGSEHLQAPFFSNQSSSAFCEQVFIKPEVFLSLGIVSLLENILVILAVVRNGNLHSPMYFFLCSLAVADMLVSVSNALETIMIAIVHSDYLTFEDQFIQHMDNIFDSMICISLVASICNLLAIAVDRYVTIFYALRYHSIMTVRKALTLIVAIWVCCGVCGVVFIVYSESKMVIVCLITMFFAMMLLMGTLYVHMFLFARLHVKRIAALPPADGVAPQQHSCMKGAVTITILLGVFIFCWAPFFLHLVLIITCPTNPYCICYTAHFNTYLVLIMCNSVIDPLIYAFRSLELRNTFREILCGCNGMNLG
T5 sequence (P56450 whole entry): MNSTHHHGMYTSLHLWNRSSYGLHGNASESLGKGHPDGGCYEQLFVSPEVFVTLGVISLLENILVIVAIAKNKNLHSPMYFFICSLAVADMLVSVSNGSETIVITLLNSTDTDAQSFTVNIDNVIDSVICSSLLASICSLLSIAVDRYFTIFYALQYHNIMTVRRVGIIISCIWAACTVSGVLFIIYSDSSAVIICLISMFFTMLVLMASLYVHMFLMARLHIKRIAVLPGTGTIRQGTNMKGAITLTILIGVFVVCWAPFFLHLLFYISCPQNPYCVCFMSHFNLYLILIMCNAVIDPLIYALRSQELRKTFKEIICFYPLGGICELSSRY
T6 sequence (P32245 whole entry): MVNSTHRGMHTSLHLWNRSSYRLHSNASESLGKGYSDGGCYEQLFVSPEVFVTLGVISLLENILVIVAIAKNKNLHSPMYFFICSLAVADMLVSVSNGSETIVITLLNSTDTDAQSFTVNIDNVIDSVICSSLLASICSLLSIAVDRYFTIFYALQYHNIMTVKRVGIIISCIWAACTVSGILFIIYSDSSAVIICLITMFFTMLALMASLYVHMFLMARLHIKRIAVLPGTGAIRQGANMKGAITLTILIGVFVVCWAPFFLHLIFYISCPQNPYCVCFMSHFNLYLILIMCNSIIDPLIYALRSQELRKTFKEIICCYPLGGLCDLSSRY
T7 sequence (P41149 whole entry): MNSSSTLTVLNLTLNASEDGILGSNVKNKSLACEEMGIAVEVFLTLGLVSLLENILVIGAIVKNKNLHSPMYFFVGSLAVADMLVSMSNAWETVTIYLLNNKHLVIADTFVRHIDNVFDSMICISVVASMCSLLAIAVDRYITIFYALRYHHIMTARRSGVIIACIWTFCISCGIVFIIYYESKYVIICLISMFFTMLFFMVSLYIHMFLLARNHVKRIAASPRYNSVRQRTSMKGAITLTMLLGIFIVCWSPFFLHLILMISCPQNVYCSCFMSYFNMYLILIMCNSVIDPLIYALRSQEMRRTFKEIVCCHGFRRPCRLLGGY
T3 sequence (P33032 whole entry): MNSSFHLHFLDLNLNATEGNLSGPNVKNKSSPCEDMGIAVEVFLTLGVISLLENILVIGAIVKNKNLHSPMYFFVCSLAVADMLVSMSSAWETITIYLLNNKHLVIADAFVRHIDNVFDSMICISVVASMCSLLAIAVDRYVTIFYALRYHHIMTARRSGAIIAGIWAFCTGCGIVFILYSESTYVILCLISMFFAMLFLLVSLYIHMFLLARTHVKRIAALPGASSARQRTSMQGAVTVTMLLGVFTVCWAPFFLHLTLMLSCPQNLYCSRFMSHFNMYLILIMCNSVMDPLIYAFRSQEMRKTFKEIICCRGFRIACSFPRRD
T1 sequence (Q01726 whole entry): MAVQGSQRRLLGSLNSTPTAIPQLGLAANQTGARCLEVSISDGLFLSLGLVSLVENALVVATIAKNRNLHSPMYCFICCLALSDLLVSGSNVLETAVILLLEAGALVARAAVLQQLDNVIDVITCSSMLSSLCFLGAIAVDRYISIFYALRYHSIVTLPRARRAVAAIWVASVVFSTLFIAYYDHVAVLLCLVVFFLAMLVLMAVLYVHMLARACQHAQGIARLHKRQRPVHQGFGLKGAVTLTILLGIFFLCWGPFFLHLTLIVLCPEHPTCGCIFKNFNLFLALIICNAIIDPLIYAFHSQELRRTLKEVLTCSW
T4 sequence (Q01727 whole entry): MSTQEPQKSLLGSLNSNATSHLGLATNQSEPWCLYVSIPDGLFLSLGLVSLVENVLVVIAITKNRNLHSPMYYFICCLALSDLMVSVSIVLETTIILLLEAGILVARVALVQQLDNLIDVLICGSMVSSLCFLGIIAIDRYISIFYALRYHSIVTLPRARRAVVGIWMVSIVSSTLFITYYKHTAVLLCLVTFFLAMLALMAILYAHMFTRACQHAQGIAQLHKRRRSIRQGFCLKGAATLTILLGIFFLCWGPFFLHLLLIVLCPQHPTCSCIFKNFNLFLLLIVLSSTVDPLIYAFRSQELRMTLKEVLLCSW

- Emax (hMC1 [1]): 136%
- Emax (hMC3 [2]): 70.1%
- Emax (hMC5 [3]): 62.7%
- Emax (mMC1 [4]): 99.7%
- Emax (hMC3 [5]): 10.9%
- Emax (hMC5 [6]): 38.2%
- Emax at 2 µM (mMC4 [7]): 75.1%
- Emax at 2 µM (hMC4 [8]): 26.5%
- Emax (hMC1 [9]): 112%
- Emax (mMC5 [10]): 14.8%
- Emax (hMC4 [11]): 56.1%
- Emax (mMC1 [12]): 103%
- Emax (mMC5 [13]): 18.6%
- Emax (mMC4 [15]): 80.7%
Compound: CCCC[C@H](NC(C)=O)C(=O)N[C@H]1CCC(=O)NC[C@@H](C(=O)N[C@@H](Cc2c[nH]c3ccccc23)C(N)=O)NC(=O)[C@H](CCCNC(=N)N)NC(=O)[C@@H](Cc2ccccc2)NC(=O)[C@H](Cc2c[nH]cn2)NC1=O [PL8177, Ac-Nle^1-cyclo(Glu^2-L-His^3-D-Phe^4-Arg^5-Dap^6)-Trp^7-NH2]
- persisting plasma levels after administration [14]: 48 h
